Experimental data as given in publication PMC11582565, “Allostery can convert binding free energies into concerted domain motions in enzymes” (Nature Communications, 2024).

What was measured:
Type in all cases: binding
[1] = biological target: T1, adenylate kinase (AK_2+, AK) (Escherichia coli, UniProt P69441); assay: single-molecule nanopore (ClyA-AS) recording, Hill fit of LID-closed fraction; details: minor component; type II blockades (12 ± 6% of blockades, alternative conformer); Hill coefficient 1.7; 400 mM KCl, 15 mM Tris, 2 mM MgCl2, pH 7.5, 22 °C, -90 mV
T1 construct: gene adk; full-length AK (214 residues) with C-terminal extension GKK plus Strep-tag WSHPQFEK kept; pET22b, E. coli BL21(DE3); single enzyme trapped in ClyA-AS nanopore
T1 sequence (P69441 whole entry): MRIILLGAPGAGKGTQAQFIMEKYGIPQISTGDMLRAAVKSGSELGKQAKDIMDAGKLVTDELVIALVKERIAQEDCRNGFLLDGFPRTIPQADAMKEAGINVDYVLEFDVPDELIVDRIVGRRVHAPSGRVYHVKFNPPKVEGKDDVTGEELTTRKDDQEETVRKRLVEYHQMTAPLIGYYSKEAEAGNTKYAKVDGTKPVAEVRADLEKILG

[2] = biological target: T1, adenylate kinase (AK_2+, AK); assay: as above
[3] = biological target: T1, adenylate kinase (AK_2+, AK); assay: single-molecule nanopore (ClyA-AS) recording, ligand-induced current levels M1-M4; details: inhibitor; added cis or trans; 400 mM KCl, 15 mM Tris, 2 mM MgCl2, pH 7.5, 22 °C, -90 mV

Row | Compound | KD [1] | Kd [2] | single-molecule nanopore (ClyA-AS) recording, ligand-induced current levels M1-M [3]
1 | Nc1ncnc2c1ncn2[C@@H]1O[C@H](COP(=O)(O)OP(=O)(O)O)[C@@H](O)[C@H]1O [ADP] | 123.2 ± 18.1 µM | 45.4 ± 1.6 µM | 
2 | Nc1ncnc2c1ncn2[C@@H]1O[C@H](COP(=O)(O)OP(=O)(O)OP(=O)(O)OP(=O)(O)OP(=O)(O)OC[C@H]2O[C@@H](n3cnc4c(N)ncnc43)[C@H](O)[C@@H]2O)[C@@H](O)[C@H]1O [Ap5A, P^1,P^5-Di-(adenosine-5’)-pentaphosphate] |  |  | The addition of Ap5A to either the cis or trans side of the nanopore induced
